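Assay format: 96-well plates, 48-hour exposure. The concentration for 50% growth inhibition is given as GI50.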 Calls of active or inactive are those of the source. Cut-off read from the data, not from the text of the source: active = GI50 up to about 1.1 µM and inactive = higher.
How the values were obtained:
Experiment in all cases: DTP human tumour cell line panel, 48 h
[1] = tested on: A498
[2] = tested on: BT-549
[3] = tested on: HCT-116
[4] = tested on: Hs-578T
[5] = tested on: IGROV-1
[6] = tested on: M14
[7] = tested on: MCF7
[8] = tested on: MDA-MB-435
[9] = tested on: NCI-H460
[10] = tested on: PC-3
[11] = tested on: SF-268
[12] = tested on: SK-OV-3
[13] = tested on: SN12C
[14] = tested on: SNB-19
[15] = tested on: SNB-75
[16] = tested on: SW-620
[17] = tested on: T47D
[18] = tested on: U-251
[19] = tested on: UO-31
[20] = tested on: SR

Measured: GI50

COc1ccc(/C=C2\CCC(C)C3=C(c4ccc(OC)c(OC)c4)C(C#N)=C(N)OC32)cc1OC (configuration not stated)
inactive: [1] 3.76 µM | [2] 3.51 µM | [3] 2.82 µM | [4] 4.42 µM | [5] 2.39 µM | [6] 3.17 µM | [7] 3.26 µM | [8] 2.7 µM | [9] 3.03 µM | [10] 3.13 µM | [11] 9.77 µM | [12] 3.42 µM | [13] 3.45 µM | [14] 7.94 µM | [15] 2.33 µM | [16] 4.29 µM | [17] 2.17 µM | [18] 3.58 µM | [19] 2.4 µM

c1ccc2c(c1)ccc1nc(-c3ccc4c(c3)OCO4)c3c(c12)CCCC3
inactive: [1] 14.6 µM | [2] 17 µM | [3] 15.8 µM | [4] 2.39 µM | [6] 28.7 µM | [7] 24.5 µM | [8] 27.5 µM | [9] 11.6 µM | [10] 8.75 µM | [11] 12.2 µM | [12] 43.5 µM | [13] 26.1 µM | [14] 77.8 µM | [15] 31.1 µM | [16] 29.2 µM | [17] 11.3 µM | [18] 7.6 µM | [19] 20.9 µM

CNC(=O)CCC(NC(C)=O)C(=O)NC(Cc1ccc(NC(=O)CCCCC(C)=O)cc1)C(=O)NC(CCC(=O)NC)C(=O)NC (configuration not stated)
inactive: [1] > 100 µM | [2] > 100 µM | [3] > 100 µM | [4] 40.2 µM | [5] > 100 µM | [6] > 100 µM | [7] > 100 µM | [8] > 100 µM | [9] > 100 µM | [10] > 100 µM | [11] > 100 µM | [12] > 100 µM | [13] > 100 µM | [14] > 100 µM | [16] > 100 µM | [17] > 100 µM | [18] > 100 µM | [19] > 100 µM

C(=N\N=C1NCCCCN1)/c1ccc2ccccc2c1
inactive: [2] 37.2 µM | [3] 33.7 µM | [4] 92.9 µM | [5] 40.9 µM | [6] 14.5 µM | [7] 29.4 µM | [8] 17.2 µM | [9] 22.3 µM | [10] 29.6 µM | [11] 45.3 µM | [12] 27.2 µM | [13] 39.9 µM | [14] 61.5 µM | [15] 13 µM | [16] 22.7 µM | [17] 18.4 µM | [18] 21.3 µM | [19] 36.8 µM

CC1(C)C2C=CC1(C)C1(CC2)OCCO1 (configuration not stated)
inactive: [1] > 100 µM | [3] > 100 µM | [4] > 100 µM | [5] > 100 µM | [6] > 100 µM | [7] > 100 µM | [8] > 100 µM | [9] > 100 µM | [10] > 100 µM | [11] > 100 µM | [12] > 100 µM | [13] > 100 µM | [14] > 100 µM | [15] 66.1 µM | [20] > 100 µM | [16] > 100 µM | [17] > 100 µM | [18] > 100 µM | [19] > 100 µM

COc1cc2c(cc1C)NC(=O)/C2=C/c1cccnc1
inactive: [1] 10.8 µM | [2] 22.6 µM | [3] 12.5 µM | [4] 27.4 µM | [6] 14 µM | [7] 5.74 µM | [8] 12.9 µM | [9] 9.02 µM | [10] 17.9 µM | [11] 15.6 µM | [12] 7.03 µM | [14] 11.7 µM | [15] 45 µM | [16] 20.8 µM | [17] 2.84 µM | [18] 9.55 µM

COc1ccccc1Cn1[nH]c(=O)c2cc([N+](=O)[O-])ccc21
inactive: [1] 26.5 µM | [3] > 100 µM | [4] 23.7 µM | [5] 43.5 µM | [6] > 100 µM | [8] 43.9 µM | [9] > 100 µM | [11] 48.5 µM | [13] > 100 µM | [14] 61.2 µM | [15] 25.8 µM | [20] > 100 µM | [16] 84.9 µM | [19] > 100 µM

O=C(O)c1nc2ccc(C(F)(F)F)cc2nc1Nc1ccc(Cl)c(Cl)c1
inactive: [1] 13.6 µM | [2] 2.62 µM | [3] 5.12 µM | [4] 18.4 µM | [5] 12.8 µM | [7] 14.3 µM | [8] 5.74 µM | [9] 7.41 µM | [10] 4.58 µM | [11] 4.46 µM | [13] 7.67 µM | [14] 2.16 µM | [15] 13.2 µM | [20] 4.15 µM | [16] 8.15 µM | [18] 3.93 µM | [19] 4.48 µM

CCOC(=O)c1nc2ccc(C(F)(F)F)cc2nc1NCc1ccc(F)cc1
inactive: [3] 35.9 µM | [4] 21.5 µM | [5] 26.5 µM | [6] 48.6 µM | [7] 30.9 µM | [8] 31.9 µM | [9] 19.2 µM | [10] 29.4 µM | [11] 11.5 µM | [12] 43 µM | [13] 28.8 µM | [14] 32.6 µM | [15] 91.4 µM | [20] 37.8 µM | [16] 34.1 µM | [17] 17.1 µM | [18] 35.7 µM | [19] 29 µM

CCOP(=O)(OCC)C(Nc1ccc(F)cc1)c1cccc([N+](=O)[O-])c1 (configuration not stated)
inactive: [1] > 100 µM | [2] 89.3 µM | [3] 46.8 µM | [4] 82.8 µM | [5] 78.9 µM | [6] 79.1 µM | [7] > 100 µM | [8] > 100 µM | [9] 65.9 µM | [10] 67.5 µM | [11] > 100 µM | [12] > 100 µM | [13] > 100 µM | [14] > 100 µM | [15] > 100 µM | [20] 93.5 µM | [16] > 100 µM | [18] > 100 µM | [19] 40.6 µM

CCOC(=O)Nn1c(C)nnc1CC#N
inactive: [2] > 100 µM | [3] > 100 µM | [4] > 100 µM | [5] > 100 µM | [6] > 100 µM | [7] > 100 µM | [9] > 100 µM | [10] > 100 µM | [11] > 100 µM | [13] > 100 µM | [14] > 100 µM | [15] > 100 µM | [20] > 100 µM | [16] > 100 µM | [17] > 100 µM | [18] > 100 µM | [19] > 100 µM

NNC(=O)C1(NC(=O)c2ccccc2)C(c2ccccc2)C(c2ccccc2)=NN1c1ccccc1 (configuration not stated)
inactive: [1] > 100 µM | [2] 71.8 µM | [3] 37 µM | [5] 34.9 µM | [6] 22.8 µM | [7] 37.9 µM | [8] 29.2 µM | [9] 43.8 µM | [10] 24.4 µM | [11] 66.7 µM | [12] 29.9 µM | [13] 63.2 µM | [14] 66.2 µM | [15] 30.2 µM | [20] 18.2 µM | [16] 46.6 µM | [17] 23.1 µM | [18] 62.1 µM | [19] 27.8 µM

Cc1cccc2[nH]c3c(c(O)cc4[nH]c5cccc(C)c5c(=O)c43)c(=O)c12
inactive: [1] > 10 µM | [2] 3.63 µM | [3] 3.65 µM | [4] 7.19 µM | [5] 5.74 µM | [6] 4.47 µM | [7] > 10 µM | [8] 4.89 µM | [9] 5.57 µM | [10] 4.06 µM | [11] > 10 µM | [12] > 10 µM | [13] 4.97 µM | [14] > 10 µM | [15] > 10 µM | [16] 6.11 µM | [17] 8.83 µM | [18] 3.3 µM

O=C(c1ccccc1)N1CCN(C(=S)NC2CCCCC2)C1=S
inactive: [1] 19 µM | [2] 17.1 µM | [3] 16.1 µM | [4] 19 µM | [5] 24.2 µM | [6] 16.8 µM | [7] 22.8 µM | [8] 19.5 µM | [9] 21.4 µM | [11] 16.8 µM | [12] 25.7 µM | [13] 17.8 µM | [15] 11.1 µM | [20] 28.5 µM | [16] 21.6 µM | [17] 15.8 µM | [18] 9.89 µM | [19] 16.1 µM

C/C(=C(/C)c1ccc(O)cc1)c1ccc(O)cc1 [DIMETHYLSTILBESTROL]
inactive: [1] 54.6 µM | [2] 12.6 µM | [3] 83.2 µM | [4] 24.5 µM | [5] > 100 µM | [6] 45.3 µM | [7] 39.5 µM | [8] 37.9 µM | [9] 49.8 µM | [10] 41.3 µM | [11] > 100 µM | [12] > 100 µM | [13] 58.6 µM | [14] > 100 µM | [15] 39.2 µM | [20] 40.1 µM | [16] > 100 µM | [18] 67.3 µM | [19] 70.8 µM
